Laboratory results from patent US10299502B2, “Method for producing an extract of a matrix of vegetable origin with a non-ionic amphiphilic compound as extraction adjuvant in an aqueous medium” (PIERRE FABRE DERMO-COSMETIQUE, priority 2015, dated 2019).

Tests used:
[1] = Recovery of extracted α-mangostin by precipitation on dilution; assay type: physicochemical
Excerpt: The extract thus obtained may also be diluted in a volume of water optionally supplemented with one or more adjuvants selected from salts, acids or bases, so as to be at a final concentration of non-ionic amphiphilic compound below the sufficient concentration defined above. Thus, it is possible to recover the lipophilic compounds by precipitation and solid-liquid separation such as filtration or centrifugation.
At 7% amyl xyloside, 100% of the α-mangostin extracted precipitates.

[2] = Solubilization curves (Sudan red, α-mangostin) to determine the minimum hydrotrope concentration; assay type: physicochemical; conditions: deduced from solubilization curves in aqueous solution
Description: The term “minimum hydrotrope concentration” refers to the concentration above which these non-ionic amphiphilic compounds begin to form aggregates, i.e., new microenvironments with physical properties different from those observed when the compound is diluted, and different from micellar behavior. This minimum hydrotrope concentration is specific to each non-ionic amphiphilic compound and generally has the order of magnitude of the molarity. It can be determined by several physicochemical methods, such as by measuring surface tension, conductivity or dynamic and static light scattering (Self-association of nicotinamide in aqueous solution: Light-scattering and vapor pressure osmometry studies (1996) 85(8): 848-853), or quite simply by establishing a solubilization curve of a lipophilic compound (solubilized solute content as a function of concentration of non-ionic amphiphilic compound). Sudan red, a lipophilic dye easily measured by spectrophotometry, can be used as reference. […]
The solubilization curves of Sudan red in aqueous solutions of various non-ionic amphiphilic compounds at different concentrations were prepared. After saturation of the solutions with Sudan red and filtration, the Sudan red content solubilized in each solution is measured after dilution by UV spectrophotometry at 476 nm. […]

% of α-mangostin recovered by precipitation/α-mangostin extracted ([1]; extraction concentration 40%, concentration after dilution 7%) [%] | % of α-mangostin recovered by precipitation/α-mangostin extracted ([1]; extraction concentration 40%, concentration after dilution 7%, listed as amyl xyloside) [%] | % of α-mangostin recovered by precipitation/α-mangostin extracted ([1]; extraction concentration 40%, concentration after dilution 15%) [%] | % of α-mangostin recovered by precipitation/α-mangostin extracted ([1]; extraction concentration 40%, concentration after dilution 15%, listed as amyl xyloside) | MHC (minimum hydrotrope concentration) [2] | % of α-mangostin recovered by precipitation/α-mangostin extracted ([1]; extraction concentration 59%, concentration after dilution 24%) [%] | Molecule
100 | 100 | 12 | little α-mangostin precipitates | 5-10% | – | amyl xyloside
– | – | – | – | – | 66 | CC(C)(O)CCO [Isopentyldiol, 3-methyl-1,3-butanediol]
